Each structure is given as a SMILES string. Read-outs that look alike come from different tables or passages of the source.

Broadly, the Kd is the constant that tells how readily two partners part at equilibrium.

Assay [1] concerns the target T1, FimC:FimH complex (Escherichia coli, UniProt P08191).
T1 construct: lectin domain (residues 1-158) is joined to a carboxy-terminal pilin domain (residues 159-279)
The assay is described as follows: Binding of alpha-D-mannose to full length FimH in FimC:FimH complex. Further details: species or system E. coli. As for the experimental part:
(§1) To eliminate the possibility of different binding strength for full length FimH and FimHtrJ96, the binding of alpha-D-mannose to FimC:FimH complex was also measured. […] The inhibition of [^3H]-mannose binding was used in a displacement assay to determine the dissociation constant for a synthetic butyl mannoside by measuring the amount of [^3H]-mannose bound to the protein in the presence of increasing amounts of the inhibitor (FIG. 1B). […] To investigate the effect of sequential addition of methyl groups to the O1 oxygen of D-mannose, a series of alkyl mannosides were synthesized and the dissociation constants determined using the [^3H]-mannose displacement assay and by surface plasmon resonance (Table 1).

In assay [2] the target is T2, FimHtrJ96 (Escherichia coli, UniProt P08191).
T2 construct: coding for the lectin domain of FimH (residues 1-158) with a C-terminal 6-histidine tag; made in house; host or cells: E. coli HB101 (lacking the fim operon), periplasmic extract, plasmid pPKL241
Briefly: biochemical. The assay is classed as binding, uropathogenic E. coli strain J96. The method, then:
To measure the dissociation constant for FimH:alkyl or aryl-mannoside binding, two different binding assays were developed. The first binding assay uses [^3H]-mannose. The amount of radioactively labeled mannose bound to FimHtrJ96 was measured at six different concentrations of [^3H]-mannose, and a hyperbolic curve fitted to the resulting data (FIG. 1A). FimHtrJ96 corresponds to the carbohydrate (mannose) binding domain of FimH from the uropathogenic E. coli strain J96. The dissociation equilibrium constant was determined from this graph at the concentration of mannose […], which corresponds to occupation of half of the binding sites.
Surface Plasmon Resonance measurements were performed on a Biacore3000™. In a first experiment, the kinetic constants and maximal binding were determined for the FimH-antibody interaction. Next, a fixed concentration of FimH (close to the KD of the FimH-antibody interaction) in combination with varying concentrations of carbohydrate, were used to determine the dissociation equilibrium constant of the FimH-saccharide interaction in a competition experiment. Every measurement was repeated at least twice, including testing the variation between different protein and saccharide batches.
as §1
Surface Plasmon Resonance measurements were performed on a Biacore3000™. The Fab fragments of a monoclonal antibody against FimH were covalently immobilised via lysines at 1000 Resonance Units (1000 pg ligand/mm^2) in flowcell Fc2 on a CM5 biasensor chip (BIAapplications Handbook, Biacore AB, Uppsala, Sweden). Immobilisation buffer was 100 mM NaAc pH 5.0 with 100 mM NaCl. The reference flowcell Fc1 was left blank.
Binding of FimH to the immobilized antibody was measured with a Biacore 3000 instrument in running buffer (phosphate buffered saline with 0.005% surfactant P20 and 3 mM EDTA), on both flowcells Fc1 and Fc2 simultaneously, at a flow rate of 30 μl/min and at 25° C. Complete dissociation of FimH was done with running buffer before starting a new binding cycle. For all measurements, the association time was 3 minutes, the dissociation time was 30 min. All binding cycles were performed in duplicate, including a zero concentration cycle of FimH (injection of running buffer).
In a first experiment, the kinetic constants, ka and kd, and the maximal binding Rmax, were determined for the FimH-antibody interaction (FimH concentrations (nM): 2000, 1000, 500, 250, 125, 62.5, 31.25, 15.625, 7.818, 3.911, 1.957, 0). All analyses were performed with the BIAeval software. A Langmuir binding isotherm with a 1:1 stoichiometry was fitted to the data, from which the kinetic constants and maximal binding were obtained.
In the next experiment, samples containing a fixed concentration of FimH (close to the KD of the FimH-antibody interaction) in combination with varying concentrations of saccharide, were used to determine the dissociation constant of the FimH-saccharide interaction in a competition experiment. First, ten-fold dilutions of the saccharide solution were used to determine the concentration range for binding of the saccharide to FimH.

T2 sequence (P08191 22-179): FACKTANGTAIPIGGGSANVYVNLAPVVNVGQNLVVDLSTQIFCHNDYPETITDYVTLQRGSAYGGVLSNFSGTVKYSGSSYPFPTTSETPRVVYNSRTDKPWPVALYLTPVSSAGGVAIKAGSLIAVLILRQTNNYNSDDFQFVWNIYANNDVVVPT
T1 sequence (P08191 22-300): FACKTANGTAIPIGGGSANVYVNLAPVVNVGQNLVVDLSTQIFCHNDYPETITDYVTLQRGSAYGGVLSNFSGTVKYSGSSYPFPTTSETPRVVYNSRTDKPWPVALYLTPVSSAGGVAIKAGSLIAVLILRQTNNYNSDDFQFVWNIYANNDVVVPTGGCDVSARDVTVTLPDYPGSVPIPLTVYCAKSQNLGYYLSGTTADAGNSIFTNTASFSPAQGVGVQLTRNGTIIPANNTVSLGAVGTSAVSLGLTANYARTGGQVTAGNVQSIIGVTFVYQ
T1 sequence (P31697 37-241, further chain): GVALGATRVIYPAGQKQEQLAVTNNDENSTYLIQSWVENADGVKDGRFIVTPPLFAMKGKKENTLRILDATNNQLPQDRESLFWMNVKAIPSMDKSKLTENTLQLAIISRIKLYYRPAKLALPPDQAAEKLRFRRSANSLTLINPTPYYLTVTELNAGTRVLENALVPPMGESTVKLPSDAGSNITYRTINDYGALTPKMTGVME

For the compound `OC[C@H]1O[C@H](O)[C@@H](O)[C@@H](O)[C@@H]1O` [Mannose, α-D-mannose], the Kd stood at 2300 nM in assay [1]; 2300 nM in assay [2]; 2300 nM in assay [2] (Table 1, O1 alkyl and aryl mannosides, SPR and displacement binding experiments); 2300 nM in assay [2] (read-out: KD J96, Table 3, [3H]-mannose displacement assay (mannose measured directly)). For the same compound, the “ΔG°” value in assay [2] (Table 1, calculated from KD) is -7.6 kcal/mol. In assay [2] (Table 3, calculated from KD), the “ΔG° J96” value is -7.6 kcal/mol.

(Values after US20080171706A1, “Anti-Adhesive Compounds to Prevent and Treat Bacterial Infections” (priority 2004, published 2008).)
